# Results reported in patent US20230330059A1, “3-PHENYL-2H-CHROMENE DERIVATIVE AND PHARMACEUTICAL COMPOSITION FOR PREVENTING OR TREATING ALZHEIMER'S, CONTAINING SAME” (NEUROBIONET, INC., priority 2020, published 2023).
# Like-named read-outs stand apart in the source and are kept apart here.
# How the values were obtained:
# Aβ42 [1] = target: T1, Aβ42 (Homo sapiens, UniProt P05067); test: Thioflavin T (ThT) assay of Aβ fibrosis; assay type: biochemical; conditions: ThT fluorescence, 37° C., 180 minutes; compared to negative control and Daidzein or Equol; FIG. 1
# T1 construct: 1,1,1,3,3,3-hexafluoro-2-propanol-treated Aβ42 (# A-1163-1, rPeptide); purchased rPeptide A-1163-1
# Protocol: ThT assay was used to examine whether the drugs have an inhibitory activity against the fibrosis of Aβ. Lyophilized AggreSure AβAS-72216, AnaSpec) was dissolved in cold Tris buffered saline (TBS; pH 7.2) to prepare a 160 µg/mL Aβ solution. The solution was aliquoted into 1.5 mL tubes and stored at -80° C. until use. ThT (# T3516, Sigma-Aldrich) and drug candidates were dissolved in TBS to form a final concentration of 500 µM. The diluted aggregates were added to […] black plates (Nunc # 242764), mixed with ThT and drug candidates, and incubated at 37° C. for 180 minutes. Fluorescence signals were measured every 5 minutes using a plate reader (Victor3, PerkinElmer).
# [2] = tested on: LPS-treated primary microglia; test: Cell viability of LPS-treated primary microglia; assay type: cell-based, ICR mice; conditions: FIG. 9b
# [3] = tested on: nitric oxide production in LPS-treated primary microglia; test: Nitric oxide production (Griess) in LPS-treated primary microglia; assay type: cell-based, ICR mice; conditions: FIG. 9a
# Protocol: (§1) BV2 cells were seeded at a density of 4 x 10^5 cells/well into 96-well plates, and primary microglial cells isolated from the brain of […] ICR mice were seeded at a density of 4 x 10^5 cells/well into 24-well plates.
# (§2) After stabilization for 24 hours, the cells were treated with various concentrations (1 and 5 µM) of daidzein, o-desmethylangolensin, S-equal, SPA1413, and SPA1426 for 30 minutes and then with LPS (100 ng/ml) for 24 hours at 37° C. The culture media were collected and measured for NO production using a Griess reagent solution (1% sulfanilamide and 0.1% N-1-naphthyl ethylenediamine dihydrochloride in 5% phosphoric acid). Briefly, a total of 50 µL of the supernatant was transferred to new 96-well plates and mixed with the same volume of the Griess reagent solution, followed by measuring OD at 570 nm. In addition, the cell viability was assayed in the same manner as in Experimental Example 2.
# IL-6 = IL-6 production (ELISA) in LPS-treated BV2 cells; assay type: cell-based, mouse; conditions: 5 µM, LPS (100 ng/ml) 24 hours, FIG. 10a
# Protocol: (§3) BV2 cells were seeded at a density of 4x10^5 cells/well into 96-well plates and stabilized for 24 hours. Thereafter, the cells were treated with 5 µM of daidzein, o-desmethylangolensin, S-equal, SPA1413, or SPA1426 for 30 minutes and then with LPS (100 ng/ml) for 24 hours at 37° C. The culture medium was collected and quantitatively measured for IL-6 and TNF-a released to the BV2 culture supernatant, using the enzyme immunoassay method […] Enzyme-Linked Immuno Assay (ELISA) kit (R&D systems, Minneapolis, MN, USA). The IL-6 and TNF-a releases from the groups treated with the samples were evaluated relative to that from the LPS-treated group, which was set to be 100%, and the results are depicted in FIGS. 10a and 10b.
# TNF-a = TNF-a production (ELISA) in LPS-treated BV2 cells; assay type: cell-based, mouse; conditions: 5 µM, LPS (100 ng/ml) 24 hours, FIG. 10b
# Protocol: as §3
# JNK = JNK protein expression (western blot) in LPS-treated BV2 cells; assay type: cell-based, mouse; conditions: 5 µM, compared to the LPS-treated group, FIG. 12a
# Protocol: BV2 cells were aliquoted at a density of 1x10^6 cells/well into 60 mm dishes and stabilized for 24 hours. Thereafter, the cells were treated with 5 µM of S-equal, SPA1413, or SPA1426 for 30 minutes and then with LPS (100 ng/ml) for 24 hours at 37° C. After being cultured to reach 100% confluence, the cells were washed with PBS and lysed with a lysis buffer (PRO-PREP™ Protein Extraction Solution, Intron Biotechnology, Seongnam, Korea). With bovine serum albumin (BSA) serving as a standard, the protein contents of the lysate supernatants were measured by Bio-Rad Protein Assay (Bio-Rad, California, USA) to determine the total protein content in each sample. Afterwards, each of the samples was loaded in a protein amount of 30 µg on a 10-12% SDS-PAGE gel and run for electrophoresis. The electrophorized proteins were transferred to a PVDF membrane which was then blocked with 5% skim milk and incubated with antibodies to JNK or p38 (Cell Signaling Technologies, Massachusetts, USA). Detection was conducted with a ChemiDoc XRS+ imaging system (Bio-Rad, CA, USA).
# N2a cells = test: Neurite outgrowth in N2a cells (Incucyte); assay type: cell-based, mouse; conditions: 5 µM, FIGS. 14a and 14b
# Protocol: N2a cells were aliquoted at a density of 1x10^4 cells/well into 24-well plates, treated with daidzein, o-desmethylangolensin, S-equal, SPA1413 and SPA1426 at 5 µM, and evaluated for neurite outgrowth by the real-time cell monitoring system InCucyte. The cells were photographed every 2 hours, and the neurites were counted through Incucyte software.
# [4] = tested on: nitric oxide production in LPS-treated BV2 cells; test: Nitric oxide production (Griess) in LPS-treated BV2 cells; assay type: cell-based, mouse; conditions: for NO production: LPS-treated BV2 cells, FIG. 4 (lower), 8a; for IC50: Mus musculus, read-out: IC50 (NO production)
# Protocol: as §1
# as §2, with “The” for “After stabilization for 24 hours, the cells were treated with various concentrations (1 and 5 µM) of daidzein, o-desmethylangolensin, S-equal, SPA1413, and SPA1426 for 30 minutes and then with LPS (100 ng/ml) for 24 hours at 37° C. The”
# Aβ42 [5] = target: T1, Aβ42; test: Multimer detection system (MDS) assay of Aβ42 oligomerization; assay type: biochemical; conditions: compounds 100 µM, Aβ42 200 µg/mL; compared to negative control and Daidzein or Equol; FIG. 2
# Protocol: The drugs selected on the basis of the ThT assay results were evaluated for inhibitory activity against the oligomerization of Aβ42, using a multimer detection system (MDS) assay. Immediately after being dissolved in 1% NH4OH (# 221228, Sigma-Aldrich), 1,1,1,3,3,3-hexafluoro-2-propanol-treated Aβ42 (# A-1163-1, rPeptide) was diluted in 500 µL of phosphate-buffered saline (PBS; pH 7.5), aliquoted into 1.5-mL tubes, and stored at -80° C. until use. Aβ42 and the compounds were mixed with PBS to make final concentrations of 200 µg/mL and 100 µM, respectively, and incubated at room temperature. Aggregation of Aβ42 was terminated by maintaining at -80° C.
# After the reaction between each drug and Aβ42, the oligomeric form of Aβ42 was measured for each time to measure inhibitory effects on the oligomer.
# T1 sequence (P05067 672-713 limits assumed): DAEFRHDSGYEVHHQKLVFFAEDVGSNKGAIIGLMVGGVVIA
"IC50 ([4]; BV-2, LPS (100 ng/ml) 24 hours, Griess reagent, cell type not stated in Table 1) [µM]",SMILES,inhibition of Aβ42 fibrosis (Aβ42 [1]),cell viability compared to the group treated with LPS [2],NO production [3],IL-6 production (IL-6),TNF-a production (TNF-a),expression level of JNK protein (JNK),neurite outgrowth (N2a cells),NO production [4],"IC50 ([4]; BV-2, 24 h) [µM]",inhibition of Aβ42 oligomerization (Aβ42 [5])
–,"Oc1ccc(C2=Cc3ccc(O)cc3OC2)cc1 [SPA1413, 3-(4-Hydroxyphenyl)-2H-chromen-7-ol]",showed the effect of inhibiting Aβ42 fibrosis,increased,decreased NO production in dose-dependent manners,significantly decreased,significantly decreased,decreased,significantly increased,decreased NO production in dose-dependent manners,5.2,exhibited inhibitory effects on Aβ42 oligomerization
3.67,"CCCC(=O)Oc1ccc(C2=Cc3ccc(OC(=O)CCC)cc3OC2)cc1 [SPA1426, 4-(7-(butyryloxy)-2H-chromen-3-yl)phenyl butyrate]",showed the effect of inhibiting Aβ42 fibrosis,increased,decreased NO production in dose-dependent manners,significantly decreased,significantly decreased,decreased,significantly increased,decreased NO production in dose-dependent manners,–,exhibited inhibitory effects on Aβ42 oligomerization
